Source: the NIST ThermoML archive (doi:10.1021/acs.jced.5b00331)
± gives the expanded uncertainty stated by the source. Values belong to the molecule of their own block, whether it stands above or below them.

Tests used:
[1] = xn = mol fraction of the nth substance listed; conditions: 101 kPa, Liquid; for mass density: Vibrating tube method; for excess molar volume: Direct dilatometry
[2] = 313.15 K; 101.33 kPa; Liquid; Vibrating tube method

mass density ([1]; 313.15 K, x2 = 0.5001): 758.9 ± 0.2 kg/m3
Structure (SMILES): CCCCCCCCCCCCCCCCCCCCCC [docosane] + CCCCCCCCCC

mass density ([1]; 313.15 K, x2 = 0.5): 758.8 ± 0.3 kg/m3
mass density ([1]; 315.65 K, x2 = 0.5): 757.1 ± 0.3 kg/m3
Structure (SMILES): CCCCCCCCCCCCCCCCCCCCCCCC [tetracosane] + CCCCCCCC

mass density ([1]; 313.15 K, x2 = 0.4999): 762.9 ± 0.2 kg/m3
Structure (SMILES): C1CCCCCC1 [cycloheptane] + C1CCCC1

Structure (SMILES): C1CCCCC1 [cyclohexane]
mass density [2]: 759.8 ± 0.2 kg/m3

mass density ([1]; 313.15 K, x2 = 0.5001): 758.4 ± 0.2 kg/m3
Structure (SMILES): CCCCCCCCCCCCCCCCCC [octadecane] + CCCCCCCCCCCCCC

mass density [2]: 762.9 ± 0.3 kg/m3
Structure (SMILES): CCCCCCCCCCCCCCCC [hexadecane]

excess molar volume ([1]; 313.15 K, x2 = 0.0083): 1.32e-08 ± 2.8e-09 m3/mol
excess molar volume ([1]; 313.15 K, x2 = 0.03441): 5.31e-08 ± 2.9e-09 m3/mol
excess molar volume ([1]; 313.15 K, x2 = 0.0839): 1.341e-07 ± 3.1e-09 m3/mol
excess molar volume ([1]; 313.15 K, x2 = 0.1372): 2.074e-07 ± 3.8e-09 m3/mol
excess molar volume ([1]; 313.15 K, x2 = 0.2221): 3.185e-07 ± 5.1e-09 m3/mol
excess molar volume ([1]; 313.15 K, x2 = 0.3029): 4.088e-07 ± 6.6e-09 m3/mol
excess molar volume ([1]; 313.15 K, x2 = 0.3641): 4.671e-07 ± 7.7e-09 m3/mol
excess molar volume ([1]; 313.15 K, x2 = 0.4199): 5.136e-07 ± 8.8e-09 m3/mol
excess molar volume ([1]; 313.15 K, x2 = 0.4911): 5.593e-07 ± 1e-08 m3/mol
excess molar volume ([1]; 313.15 K, x2 = 0.5316): 5.779e-07 ± 9.7e-09 m3/mol
excess molar volume ([1]; 313.15 K, x2 = 0.5632): 5.878e-07 ± 9.2e-09 m3/mol
excess molar volume ([1]; 313.15 K, x2 = 0.59): 5.938e-07 ± 8.6e-09 m3/mol
excess molar volume ([1]; 313.15 K, x2 = 0.6216): 5.968e-07 ± 8e-09 m3/mol
excess molar volume ([1]; 313.15 K, x2 = 0.6527): 5.956e-07 ± 7.4e-09 m3/mol
excess molar volume ([1]; 313.15 K, x2 = 0.6834): 5.888e-07 ± 6.9e-09 m3/mol
excess molar volume ([1]; 313.15 K, x2 = 0.7073): 5.731e-07 ± 6.3e-09 m3/mol
excess molar volume ([1]; 313.15 K, x2 = 0.7163): 5.728e-07 ± 6.1e-09 m3/mol
excess molar volume ([1]; 313.15 K, x2 = 0.7223): 5.731e-07 ± 6.1e-09 m3/mol
excess molar volume ([1]; 313.15 K, x2 = 0.7489): 5.558e-07 ± 6.1e-09 m3/mol
excess molar volume ([1]; 313.15 K, x2 = 0.7508): 5.513e-07 ± 6.1e-09 m3/mol
excess molar volume ([1]; 313.15 K, x2 = 0.7749): 5.318e-07 ± 5.3e-09 m3/mol
excess molar volume ([1]; 313.15 K, x2 = 0.8022): 5.039e-07 ± 4.8e-09 m3/mol
excess molar volume ([1]; 313.15 K, x2 = 0.8303): 4.675e-07 ± 4.5e-09 m3/mol
excess molar volume ([1]; 313.15 K, x2 = 0.8736): 3.939e-07 ± 4e-09 m3/mol
excess molar volume ([1]; 313.15 K, x2 = 0.8928): 3.535e-07 ± 3.9e-09 m3/mol
excess molar volume ([1]; 313.15 K, x2 = 0.9106): 3.105e-07 ± 3.9e-09 m3/mol
excess molar volume ([1]; 313.15 K, x2 = 0.9242): 2.747e-07 ± 4e-09 m3/mol
excess molar volume ([1]; 313.15 K, x2 = 0.9453): 2.13e-07 ± 4e-09 m3/mol
excess molar volume ([1]; 313.15 K, x2 = 0.9634): 1.518e-07 ± 4.4e-09 m3/mol
excess molar volume ([1]; 313.15 K, x2 = 0.9801): 8.6e-08 ± 4.7e-09 m3/mol
excess molar volume ([1]; 313.15 K, x2 = 0.988): 5.32e-08 ± 4.9e-09 m3/mol
excess molar volume ([1]; 313.15 K, x2 = 0.9948): 2.3e-08 ± 5e-09 m3/mol
Structure (SMILES): CCCCCCCCCCCCCCCC [hexadecane] + C1CCCCC1
